The source of these data is BindingDB's records for PubMed 3009454 (University of Wisconsin, 1986).

Structures are written as SMILES.

For the test, the target named is T1, Aryl hydrocarbon receptor (Mus musculus, UniProt P30561).
T1 sequence (P30561 whole entry): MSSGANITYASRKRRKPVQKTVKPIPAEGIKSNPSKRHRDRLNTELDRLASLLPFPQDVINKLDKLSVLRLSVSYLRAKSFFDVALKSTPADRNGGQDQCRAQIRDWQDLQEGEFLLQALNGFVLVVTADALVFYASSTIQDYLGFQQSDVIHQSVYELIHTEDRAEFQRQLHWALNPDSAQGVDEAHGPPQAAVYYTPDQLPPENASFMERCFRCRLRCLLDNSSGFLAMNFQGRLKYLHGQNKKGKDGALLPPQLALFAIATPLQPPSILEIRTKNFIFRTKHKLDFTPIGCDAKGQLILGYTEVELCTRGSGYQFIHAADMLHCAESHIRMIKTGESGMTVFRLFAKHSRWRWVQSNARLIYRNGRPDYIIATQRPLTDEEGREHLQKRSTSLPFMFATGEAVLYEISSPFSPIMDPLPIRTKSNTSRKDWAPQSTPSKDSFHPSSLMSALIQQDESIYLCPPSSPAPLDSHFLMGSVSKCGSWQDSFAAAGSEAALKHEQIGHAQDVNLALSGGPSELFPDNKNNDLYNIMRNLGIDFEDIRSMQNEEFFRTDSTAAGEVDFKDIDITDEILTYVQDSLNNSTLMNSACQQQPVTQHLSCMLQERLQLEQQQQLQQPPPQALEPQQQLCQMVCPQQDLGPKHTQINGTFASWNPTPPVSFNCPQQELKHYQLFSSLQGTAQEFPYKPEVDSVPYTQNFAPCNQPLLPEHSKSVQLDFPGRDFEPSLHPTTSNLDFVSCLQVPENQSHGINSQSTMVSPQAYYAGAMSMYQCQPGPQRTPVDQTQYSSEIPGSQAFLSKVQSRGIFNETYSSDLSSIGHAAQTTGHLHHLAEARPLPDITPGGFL
In words: Binding Assay. Conditions: pH 7.5; 0 °C. As to the method:
The equilibrium dissocation constants, KD values for the photoaffinity ligands were determined by a competitive binding assay.

Regarding `[N-]=[N+]=Nc1cc(Cl)cc2c1Oc1cc(Cl)c(Cl)cc1O2` [Photoaffinity ligand, 1], binding was put at a Kd of 0.44 nM.
Regarding `[N-]=[N+]=Nc1c(I)c(Cl)cc2c1Oc1cc(Cl)c(Cl)cc1O2` [Photoaffinity ligand, 2], the affinity, expressed as Kd, was 2.1 nM.
On to `[N-]=[N+]=Nc1cc2c(cc1Cl)Oc1cc(Cl)c(Cl)cc1O2` [Photoaffinity ligand, 3], for which the Kd (as a rule, a measure of binding affinity in units of concentration) is 0.49 nM. Against the preceding compound, the Kd is about 4.3-fold lower.
The result for `[N-]=[N+]=Nc1cc2c(cc1I)Oc1cc(Br)c(Br)cc1O2` [Photoaffinity ligand, 4] reads 0.76 nM; that for `[N-]=[N+]=Nc1ccc([N+](=O)[O-])c(C(=O)NCc2c(Cl)c(Cl)cc3c2Oc2cc(Cl)c(Cl)cc2O3)c1` [Photoaffinity ligand, 5], 13 nM; that for `[N-]=[N+]=Nc1ccc(C(=O)NCc2c(Cl)c(Cl)cc3c2Oc2cc(Cl)c(Cl)cc2O3)cc1` [Photoaffinity ligand, 6], 8.1 nM.
For `[N-]=[N+]=Nc1ccc(C(=O)NCc2c(Cl)c(Cl)cc3c2Oc2cc(Cl)c(Cl)cc2O3)c(O)c1` [Photoaffinity ligand, 7] the value was 113 nM.
For `[N-]=[N+]=Nc1ccc(NCCCCCC(=O)NCc2c(Cl)c(Cl)cc3c2Oc2cc(Cl)c(Cl)cc2O3)c([N+](=O)[O-])c1` [Photoaffinity ligand, 8] the value was 11 nM.
